The numbers were not newly measured in the PKSmart pharmacokinetics tables (Seal et al. 2025), which cites them from elsewhere.

The nature of series [1]: Lombardo et al. 2013, J Clin Pharmacol 53:178, doi 10.1177/0091270012440282. The settings on record: for Vd / clearance: in vivo, iv; for fraction unbound: plasma.
Series [2] is described as follows: Lombardo, Berellini, Obach 2018, Drug Metab Dispos 46:1466, doi 10.1124/dmd.118.082966. To be noted: human; for clearance / half-life / MRT / Vd: in vivo, iv; for fraction unbound: plasma.

As usually defined, the Vd is a proportionality between amount in the body and measured concentration, not a real space. As usually defined, the clearance is a measure of how efficiently the substance is removed, as volume per time. As for `O=C(c1ccccc1)c1ccc2n1CCC2C(=O)O` (stereo not given), the distribution volume (Vd) in series [1] (dog) is 0.33 L/kg. For the same compound, the clearance in series [1] (dog) is 1.25 mL/min/kg; in series [1] (rat), 3.6 mL/min/kg.
The term fraction unbound denotes free concentration divided by total concentration. For `O=C(OC1CC2CC3C[C@@H](C1)N2CC3=O)c1c[nH]c2ccccc12` (stereo not given in full), in series [1] (dog), the clearance was 27 mL/min/kg and the fraction unbound is 0.5. Moreover, in series [1] (monkey), the clearance is 77 mL/min/kg and the unbound share (fraction unbound) was 0.5. In series [1] (rat), the volume of distribution (Vd) is 26 L/kg and the clearance was 72 mL/min/kg.
For `CCCc1nn(C)c2c(=O)nc(-c3cc(S(=O)(=O)N4CCN(C)CC4)ccc3OCC)[nH]c12`, in series [1] (dog), the Vd is 5.2 L/kg, the clearance is 12 mL/min/kg and the fraction unbound is 0.14. In series [1] (rat), the Vd was 1.1 L/kg and the clearance is 48 mL/min/kg.
Turning to `CCC#CC[C@H](C)[C@H](O)C#C[C@@H]1[C@H]2C/C(=C/COCCCC(=O)O)C[C@H]2C[C@H]1O`, in series [1] (monkey), the volume of distribution (Vd) was 1.6 L/kg and the clearance is 63.1 mL/min/kg. Further, in series [1] (rat), the Vd is 1.5 L/kg and the clearance is 170 mL/min/kg.
With `CCCCC[C@H](O)CC[C@@H]1[C@H]2Cc3cccc(OCC(=O)O)c3C[C@H]2C[C@H]1O`, in series [1] (dog), the Vd was 0.11 L/kg and the clearance was 35.8 mL/min/kg.
`Oc1ccc2c(c1)[C@]13CCCC[C@@]1(O)[C@H](C2)N(CC1CCC1)CC3`: in series [1] (dog), the volume of distribution (Vd) was 8.4 L/kg, the clearance is 58 mL/min/kg and the fraction unbound is 0.369. Moreover, in series [1] (rat), the Vd was 4.8 L/kg, the clearance is 91.2 mL/min/kg and the free fraction (fraction unbound) was 0.34.
`CC1(C)SC2C(NC(=O)C(NC(=O)N3CCNC3=O)c3ccccc3)C(=O)N2C1C(=O)O` (stereo not given): in series [1] (dog), the Vd was 0.27 L/kg and the clearance is 2.8 mL/min/kg.
Consider `C#CCN(C)[C@H](C)Cc1ccccc1`, for which, in series [1] (dog), the Vd was 9.46 L/kg and the clearance is 160 mL/min/kg. In series [1] (rat), the unbound share (fraction unbound) was 0.31.
For the compound `[H]/N=C(\N)c1ccc(CNC(=O)C2CCN2C(=O)C(NCC(=O)O)C2CCCCC2)cc1` (stereo not given), in series [1] (dog), the Vd was 0.36 L/kg, the clearance is 7 mL/min/kg and the free fraction (fraction unbound) is 0.89. Moreover, in series [1] (rat), the Vd was 0.39 L/kg, the clearance was 16.9 mL/min/kg and the fraction unbound was 0.9.
For `CC1C(=O)O[C@H]2C[C@@]34[C@H]5C[C@@H](C(C)(C)C)[C@@]36C(O)C(=O)O[C@H]6O[C@@]4(C(=O)O5)[C@@]12O` (stereo not given in full), in series [1] (rat), the Vd is 4.3 L/kg and the clearance is 65 mL/min/kg.
On to `[H]/N=C(\N)c1ccc(OCCCCCOc2ccc(/C(N)=N/[H])cc2)cc1`, for which, in series [1] (dog), the distribution volume (Vd) was 6.6 L/kg, the clearance was 60.6 mL/min/kg and the fraction unbound was 0.266. In series [1] (rat), the distribution volume (Vd) was 10.1 L/kg, the clearance was 112 mL/min/kg and the fraction unbound is 0.4.
With `COCCc1ccc(OCC(O)CNC(C)C)cc1` (stereo not given), the fraction unbound in series [1] (dog) is 0.756. In series [1] (monkey), the volume of distribution (Vd) is 14 L/kg, the clearance was 21.9 mL/min/kg and the fraction unbound is 0.825. In addition, in series [1] (rat), the Vd was 6.3 L/kg, the clearance is 87.2 mL/min/kg and the fraction unbound was 0.69.
For `Cn1c(=O)c2[nH]cnc2n(C)c1=O`, the results for the Vd in series [1] (dog) and in series [1] (monkey) were 0.68 L/kg and 0.69 L/kg, respectively. In addition, the results for the clearance in series [1] (dog), in series [1] (monkey) and in series [1] (rat) were 1.8 mL/min/kg, 3.8 mL/min/kg and 2.25 mL/min/kg, respectively.
On to `CN1C2CCC[C@@H]1CC(NC(=O)c1nn(C)c3ccccc13)C2` (stereo not given in full), for which, in series [1] (rat), the Vd is 16.7 L/kg and the clearance was 824 mL/min/kg.
Turning to `CC1C(=O)O[C@H]2[C@H](O)[C@@]34[C@H]5C[C@@H](C(C)(C)C)[C@@]36C(O)C(=O)O[C@H]6O[C@@]4(C(=O)O5)[C@@]12O` (stereo not given in full), in series [1] (rat), the distribution volume (Vd) was 3.5 L/kg and the clearance is 60 mL/min/kg.
Take `CN(c1nc2ccccc2s1)C1CCN(CC(O)COc2ccc(F)cc2)CC1` (stereo not given): in series [1] (rat), the distribution volume (Vd) was 5.8 L/kg, the clearance was 35.9 mL/min/kg and the fraction unbound was 0.016.
As for `CC(=O)Nc1ccc(O)cc1`, the fraction unbound in series [1] (rat) is 0.27.
In the case of `COC(=O)Nc1nc2ccc(C(=O)c3ccccc3)cc2[nH]1`, in series [1] (rat), the Vd is 2.6 L/kg and the clearance is 9.8 mL/min/kg.
Regarding `COc1ccccc1Oc1c(NS(=O)(=O)c2ccc(C)cn2)nc(-c2ccnc(-c3nn[nH]n3)c2)nc1OCCO`, the Vd was 0.11 L/kg in series [1] (dog), 0.36 L/kg in series [1] (monkey) and 0.32 L/kg in series [1] (rat). In addition, the figures for the clearance in series [1] (dog), in series [1] (monkey) and in series [1] (rat) were 2.89 mL/min/kg, 19 mL/min/kg and 11.7 mL/min/kg, respectively.
Regarding `NC(N)=Nc1nc(CSCCC(N)=NS(N)(=O)=O)cs1`, the values for the distribution volume (Vd) in series [1] (dog), in series [1] (monkey) and in series [1] (rat) were 0.79 L/kg, 2.1 L/kg and 0.8 L/kg, respectively. Also, the clearance in series [1] (dog) was 8.6 mL/min/kg; in series [1] (monkey), 15 mL/min/kg; in series [1] (rat) it was 22 mL/min/kg. Besides, the values for the fraction unbound in series [1] (dog), in series [1] (monkey) and in series [1] (rat) were 0.72, 0.13 and 0.47, respectively.
For the compound `CC(C)(C)[C@]1(O)C[C@@H]2OC(=O)C[C@@]23C(=O)O[C@@H]2OC(=O)C(O)[C@]213` (stereo not given in full), in series [1] (rat), the volume of distribution (Vd) was 10 L/kg and the clearance is 140 mL/min/kg.
For the compound `CC(=O)N[C@H]1[C@H]([C@H](O)[C@H](O)CO)OC(C(=O)O)=C[C@@H]1N=C(N)N`, in series [1] (rat), the distribution volume (Vd) is 0.8 L/kg and the clearance is 31.7 mL/min/kg.
For `CCC1=NC(=O)C2CSSCC/C=C\[C@H](CC(=O)NC(C(C)C)C(=O)N2)OC(=O)C(C(C)C)NC1=O` (stereo not given in full), in series [1] (monkey), the volume of distribution (Vd) is 4.95 L/kg and the clearance was 27.9 mL/min/kg. Moreover, in series [1] (rat), the Vd is 63.8 L/kg and the clearance is 625 mL/min/kg.
In the case of `COC1CC(OC2C(C)C(=O)OC(C)C(C)C(O)C(C)C(=O)C3(CO3)CC(C)C(OC3OC(C)CC(N(C)C)C3O)C2C)OC(C)C1O` (stereo not given), in series [1] (dog), the distribution volume (Vd) is 1.6 L/kg, the clearance was 12 mL/min/kg and the unbound share (fraction unbound) is 0.13. Further, in series [1] (rat), the Vd is 6.8 L/kg, the clearance was 51 mL/min/kg and the free fraction (fraction unbound) was 0.46.
The term half-life denotes how long it takes for the measured level to halve. On to `Cc1ccc(N(CC2=NCCN2)c2cccc(O)c2)cc1`, for which, in series [2], the clearance was 42 mL/min/kg and the half-life was 2.5 h.
The term MRT denotes a mean duration of stay, worked out from the concentration-time curve. For `CNC(=O)CC(N)C(=O)NC(C(=O)NC1C(=O)N2C(C(=O)O)C(C)(C)S[C@H]12)c1ccc(O)cc1` (stereo not given in full), in series [2], the MRT was 1.61 h, the Vd is 0.27 L/kg, the clearance is 2.82 mL/min/kg and the half-life is 1.45 h.
As to `CN[C@@H]1[C@H](O)[C@H](NC)[C@H]2O[C@@]3(O)C(=O)C[C@@H](C)O[C@H]3O[C@@H]2[C@H]1O`, in series [2], the MRT was 2.2 h, the Vd was 0.13 L/kg, the clearance was 0.99 mL/min/kg and the half-life is 1.8 h.
Consider `CCC(=O)NC[C@@H]1C[C@H]1c1cccc2c1CCO2`, for which, in series [2], the MRT was 0.62 h, the distribution volume (Vd) was 0.33 L/kg, the clearance was 9.04 mL/min/kg and the half-life is 0.75 h.
Take `CC#C[C@]1(O)CC[C@H]2C3=C(C4=C(CC3)CC(=O)CC4)C(c3ccc(N(C)C)cc3)C[C@@]21C` (stereo not given in full): in series [2], the mean residence time MRT was 15.7 h, the Vd was 0.45 L/kg, the clearance is 0.5 mL/min/kg and the half-life was 16.6 h. The fraction unbound in series [2] is 0.02.
For `Cc1ccnc2c1NC(=O)c1cccnc1N2C1CC1`, in series [2], the mean residence time (MRT) is 81 h, the distribution volume (Vd) is 1.3 L/kg, the clearance is 0.3 mL/min/kg and the half-life was 53 h.
`CN(c1nccc(=O)[nH]1)C1CCN(c2nc3ccccc3n2Cc2ccc(F)cc2)CC1`: in series [2], the mean residence time (MRT) was 6 h, the Vd is 0.38 L/kg, the clearance was 1.03 mL/min/kg and the half-life is 9.6 h.
For `CCOc1cc(Cc2cnc(N)nc2N)cc(OCC)c1-n1cccc1`, in series [2], the volume of distribution (Vd) is 2.5 L/kg, the clearance was 3.5 mL/min/kg, the half-life is 9.4 h and the free fraction (fraction unbound) was 0.12.
As for `S=P(N1CC1)(N1CC1)N1CC1`, in series [2], the mean residence time MRT was 4 h, the distribution volume (Vd) was 1.6 L/kg, the clearance is 6.7 mL/min/kg and the half-life is 2.7 h.
For `C[C@@H](O)C1C(=O)N2C(C(=O)O)=C(S[C@H]3CC(C(=O)N4CC[C@H](NC(=O)CN=C(N)N)C4)N(C)C3)[C@H](C)[C@H]12` (stereo not given in full), in series [1] (dog), the Vd is 0.25 L/kg, the clearance was 3.96 mL/min/kg and the fraction unbound was 0.928. Moreover, in series [1] (monkey), the Vd was 0.18 L/kg, the clearance was 1.7 mL/min/kg and the fraction unbound was 0.85. Moreover, in series [1] (rat), the Vd was 0.2 L/kg, the clearance was 15.7 mL/min/kg and the free fraction (fraction unbound) was 0.95.
